In patent publication US10590422B2, “Anticancer therapeutic intervention” (PHYZAT BIOPHARMACEUTICALS, LDA., priority 2017, dated 2020):

How the values were obtained:
ASCT2 = ASCT2 activity: [^14C]-L-alanine uptake in fibrosarcoma HT-1080 cells after ASCT2 gene silencing; assay type: cell-based, human; settings: at 48 h
Protocol: Cells were plated in 24-well plates (Sarstedt, Germany) and grown until confluence was reached. On the day of the experiment, Cell culture medium was aspirated and cells were preincubated for 15 min in Hanks' medium (ChCl 140 mM, KCl 5 mM, MgSO4.7H2O 0.8 mM, K2HPO4 0.33 mM, KH2PO4 0.44 mM, MgCl2.6H2O 1 mM, CaCl2) 0.025 mM, Tris-HCl 9.75 mM, pH 7.4). Uptake was initiated by the addition of Hanks' medium with 0.25 μM [^14C]-L-alanine in the absence and in the presence of 3 mM unlabeled L-alanin. During preincubation and incubation cells were continuously shaken and maintained at 37° C. Uptake was terminated after 1 min by rapid removal of uptake solution by means of a vacuum pump connected to a Pasteur pipette, followed by a rapid wash with Hanks' medium. Subsequently, cells were solubilized in 0.1% vol/vol Triton X-100 (dissolved in 5 mM Tris-HCl, pH 7.4), and radioactivity was measured by liquid scintillation counting.
(§1) Cells were plated in 24-well (Sarstedt, Germany) or 6-well plates (Sarstedt, Germany) or 96-well plates with black walls clear bottom (BD Biosciences, USA) and incubated 24 h under normal growth conditions. siRNAs against ASCT2 and transfection agent were diluted at desired concentrations and mixed according to transfection agent manufacturer's instructions. The mixture was incubated 20 min at RT for siRNA-complex formation, after which it was added to the cells and incubated at 37° C., 5% CO2. After the incubation period, serum and antibiotic was restored and cells were further incubated at normal conditions for the desired time points until evaluation of ASCT2 activity or ASCT2 expression (immunoblotting and RT-qPCR).

ASCT2 mRNA = assay: ASCT2 gene expression (RT-qPCR) after ASCT2 gene silencing in human colon cancer HTC-116 cells; assay type: cell-based; settings: treatment 6 h
Protocol: (§2) SK-HEP-1, T24, HT-1080 and HCT-116 cell lines were maintained in a humidified atmosphere of 5% CO2 at 37° C. SK-HEP-1 cells were grown in RPMI-1640 (Sigma, St. Louis, Mo.) supplemented with 20% fetal bovine serum (FBS) (Gibco, UK), 100 U/mL penicillin G, 0.25 μg/mL amphotericin B, 100 μg/mL streptomycin (Gibco, UK), 25 mM sodium bicarbonate (Merck, Germany) and 25 mM N-2-hydroxyethylpiperazine-N′-2-ethanosulfonic acid (HEPES) (Sigma, St. Louis, Mo.). T24 and HT-1080 cells were grown, respectively, in Dulbecco's Modified Eagle's Medium (DMEM)—high glucose (Sigma, St. Louis, Mo.) and DMEM—low glucose (Sigma, St. Louis, Mo.), supplemented with 10% FBS (Gibco, UK), 100 U/mL penicillin G, 0.25 μg/mL amphotericin B, 100 μg/mL streptomycin (Gibco, UK), 25 mM sodium bicarbonate (Merck, Germany) and 25 mM HEPES (Sigma, St. Louis, Mo.). HCT-116 cells were grown in McCoy's 5A (Sigma, St. Louis, Mo.) supplemented with 10% FBS (Gibco, UK), 100 U/mL penicillin G, 0.25 μg/mL amphotericin B, 100 μg/mL streptomycin (Gibco, UK), 25 mM sodium bicarbonate (Merck, Germany) and 25 mM HEPES (Sigma, St. Louis, Mo.). For all cell lines the medium was changed every 2 days, and cells reached confluence 3-4 days after initial seeding. For subculturing, cells were dissociated with 0.25% trypsin-ethylenediaminetetraacetic acid (EDTA) (Sigma, St. Louis, Mo.), split 1:15 or 1:20 and subcultured in a 21-cm^2 growth area (Sarstedt, Germany).
(§3) Total RNA was isolated and purified using the SV Total RNA Isolation System (Promega, USA) according to manufacturer's instructions. RNA quality and concentration were verified in the NanoDrop ND1000 Spectrophotometer (Thermo Scientific, USA), and RNA integrity and genomic DNA contamination were evaluated by agarose gel electrophoresis. Total RNA (1 μg) was converted into cDNA using the Maxima Scientific First Strand cDNA Synthesis Kit for RT-qPCR (Thermo Scientific, USA), according to instructions. The following protocol was used: 1st step, 10 min at 25° C.; 2nd step, 15 min at 50° C.; 3rd step, 5 min at 85° C. cDNA was used for qPCR analysis using Maxima SYBR Green qPCR Master Mix (Thermo Scientific, USA) in the StepOnePlus instrument (Applied Biosystems, USA). QuantiTect Primer Assay for LAT1 and ASCT2 and for the endogenous control gene GAPDH (Quiagen, Germany) were used. The qPCR reaction was performed in 96-well PCR plates (Sarstedt, Germany) as follows: one cycle of 10 min at 95° C., followed by 40 PCR cycles at 95° C. 15 s and 60° C. 60 s. […] No template controls were always evaluated for each target gene. Quantification cycle (Cq) values were generated automatically by the StepOnePlus 2.3 Software and the ratio of the target gene was expressed in comparison to the endogenous control gene GAPDH.
as §1

LAT1 mRNA = assay: LAT1 gene expression (RT-qPCR) after LAT1 gene silencing in human colon cancer HTC-116 cells; assay type: cell-based; settings: treatment 6 h
Protocol: as §2, §3
as §1, with “LAT1” for “ASCT2”

## 278/403/404 (sense UGCCACGGUCGCCUCUGAGAATT; antisense UUCUCAGAGGCGACCGUGGCATT; siRNA; sugars by position and backbone not given here; further chemistry not fully specified)
ASCT2; HT-1080 cells, 5 nM, p<0.05
  Effect on [^14C]-L-alanine uptake compared with SEQ ID NO: 267/397/398: significantly greater
ASCT2; fibrosarcoma HT-1080 cells, 5 nM siRNA, treatment 6 h, 0.4% Lipofectamine 2000, FIG. 8B
  [^14C]-L-alanine (0.25 μM) uptake at initial rate of uptake (1 min): decreased
ASCT2 mRNA; 5 or 25 nM siRNA, at 24 h or 48 h, 0.5% Lipofectamine 2000, FIGS. 9B and 9C
  ASCT2 mRNA relative abundance: decreased
ASCT2 mRNA; 72 h, 0.17% Lipofectamine 2000 or 0.1% Injectin, FIG. 20A
  ASCT2 mRNA relative abundance: significantly decreased

## 58/387/388 (sense CUUCGCCACCUACCUGCUCAATT; antisense UUGAGCAGGUAGGUGGCGAAGTT; siRNA; sugars by position and backbone not given here; further chemistry not fully specified)
LAT1 mRNA; 5, 25 and 45 nM, concentration dependent, 0.5% Lipofectamine 2000, Lipofectamine RNAiMAX or Injectin, at 72 h, FIGS. 10A and 10B
  LAT1 mRNA relative abundance: decreased
LAT1 mRNA; 5 or 25 nM siRNA, at 24 h or 48 h, 0.5% Lipofectamine 2000, FIGS. 9A and 9C
  LAT1 mRNA relative abundance: decreased
LAT1 mRNA; 72 h, 0.17% Lipofectamine 2000 or 0.1% Injectin, FIG. 19A
  LAT1 mRNA relative abundance: significantly decreased
